Measured values as given in patent publication US10201531B2, “Indazolyl-oxo-isothiazole compounds” (MOCHIDA PHARMACEUTICAL CO., LTD., priority 2015, dated 2019).

These compounds were tested on Nrf2 (assay: Evaluation of Nrf2 activation ability (Nrf2d-LacZ / Keap1 HEK293 reporter, Beta-Glo luminescence)). Conditions: Pharmacological Test Example 1, rated A/B/C.
Format: cell-based, human
Procedure, shortened: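 HEK293 cells stably expressing a human Nrf2 degron–LacZ fusion plus human Keap1 were exposed to compound for 3 h at 37° C. Reporter β-galactosidase was read by Beta-Glo luminescence after 1 h at RT. Activation is given as % of the signal with 100 nM CDDO-Im.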

EC50 [nM] | SMILES
1000 to 5000 | COc1nc(-c2ccc(C3CC3)nc2)ccc1-c1cnn(-c2cc(O)n[s+]2[O-])c1 (stereo not drawn) [Example 437]
1000 to 5000 | [O-][s+]1nc(O)cc1-n1cc(-c2ccc(F)nc2)cn1 (stereo not drawn) [Example 438]
< 1000 | [O-][s+]1nc(O)cc1-n1cc(-c2ccc(Cl)nc2)cn1 (stereo not drawn) [Example 439]
< 1000 | COc1nc(Cl)ccc1-c1cnn(-c2cc(O)n[s+]2[O-])c1 (stereo not drawn) [Example 440]
< 1000 | [O-][s+]1nc(O)cc1-n1cc(-c2ccc(-c3ccc(N4CCCC4)nc3)nc2)cn1 (stereo not drawn) [Example 441]
< 1000 | [O-][s+]1nc(O)cc1-n1cc(-c2ccc(-c3ccc(N4CCCCC4)nc3)nc2)cn1 (stereo not drawn) [Example 442]
1000 to 5000 | [O-][s+]1nc(O)cc1-n1cc(-c2ccc(F)nc2)cn1 (stereo not drawn) [Example 443]
< 1000 | COc1ccc(-c2ccc(-c3cnn(-c4cc(O)n[s+]4[O-])c3)cn2)cn1 (stereo not drawn) [Example 444]
1000 to 5000 | [O-][s+]1nc(O)cc1-n1cc2cc(OCc3cccnc3)ccc2n1 (stereo not drawn) [Example 445]
< 1000 | COc1cc(-c2ccc(-c3cnn(-c4cc(O)n[s+]4[O-])c3)cn2)ccn1 (stereo not drawn) [Example 446]
< 1000 | COc1ncccc1-c1ccc(-c2cnn(-c3cc(O)n[s+]3[O-])c2)cn1 (stereo not drawn) [Example 447]
1000 to 5000 | [O-][s+]1nc(O)cc1-n1cc(CCc2ccc(Cl)nc2)cn1 (stereo not drawn) [Example 452]
< 1000 | COc1nc(-c2ccnc(N3CCCC3)c2)ccc1-c1cnn(-c2cc(O)n[s+]2[O-])c1 (stereo not drawn) [Example 454]
1000 to 5000 | CN(c1ccc(-c2cnn(-c3cc(O)n[s+]3[O-])c2)cn1)C1CCOCC1 (stereo not drawn) [Example 459]
1000 to 5000 | CN1CCOc2cc(-c3ccc(CCc4cnn(-c5cc(O)n[s+]5[O-])c4)cn3)cnc21 (stereo not drawn) [Example 461]
